Columns and labels:
late-stage cancers = settings: patients with late-stage cancers (Pant et al, 2014); cited from earlier work
[1] = Brown et al, 2008; cited from earlier work
[2] = intravenously administered, cyclodextrin carrier (Howes et al, 2011); cited from earlier work
primary prostate cancer [3] = assay: Cytotoxic monotherapy with idronoxil suppository in theobroma oil base in prostate cancer patients, PSA follow-up; type: in vivo, human
Method: Patient receiving chemical castration therapy presenting with undetectable testosterone and receiving Zolodex for primary prostate cancer has a PSA doubling time of 6 weeks (PSA=9.6). Patient received suppository comprising 400 mg idronoxil in theobroma oil suppository base daily for 4 weeks. […] Suppository treatment was stopped for a period of 2 weeks and then continued for 2 weeks.
Patient receiving chemical castration therapy having urinary obstruction and pelvic discomfort receiving 400 mg idronoxil suppository formulation for primary prostate cancer (PSA=19). Patient received suppository comprising 800 mg idronoxil in theobroma oil suppository based daily in 2 week courses for 15 months. The suppository formulation slowed tumour growth to a doubling time of 6 months (PSA=67 at completion of 15 month therapy).

[4] = tested on: wide range of cancer cell types; settings: fold more potent than genistein; cited from earlier work
primary prostate cancer [5] = assay: Rectal idronoxil in olive oil (high oleic acid) base in a prostate cancer patient, PSA follow-up; type: in vivo, human
Method: Patient receiving chemical castration therapy presenting with undetectable testosterone and receiving Zolodex for primary prostate cancer (PSA=6.0). Patient received 400 mg idronoxil daily in olive oil base rectally for 3 weeks.

[6] = tested on: colo-rectal cancer cell lines (eg. HT-29, CaCo-2); settings: HT-29, CaCo-2 (Alvero et al, 2008); cited from earlier work
primary prostate cancer [7] = assay: Oral administration of idronoxil to a prostate cancer patient, PSA follow-up; type: in vivo, human; design: PSA at completion of 2 week period: unit not given here
Method: Patient receiving chemical castration therapy presenting with undetectable testosterone and receiving Zolodex for primary prostate cancer (PSA=3.4). Patient received 400 mg idronoxil daily by oral administration, increasing to 800 mg daily for 2 weeks. PSA at completion of 2 week period=6.7 indicating doubling time of 1 month.

[8] = tested on: late-stage ovarian cancer; settings: Phase 3, late-stage ovarian cancer, 142 women recruited (Fotopoulou et al. 2014); cited from earlier work
[9] = 400 mg theobroma oil suppository, after stop for 2 weeks, then continued for 2 weeks
[10] = suppository 800 mg in theobroma oil base daily in 2 week courses for 15 months, PSA at start 19

Structure (SMILES) | clinical benefit (late-stage cancers) | susceptibility to Phase 1 metabolic processes [1] | conjugation [2] | PSA score (primary prostate cancer [3]; [9]) | effect on tumour growth (primary prostate cancer [3]; [9]) | effect on tumour growth (primary prostate cancer [3]; suppository 400 mg in theobroma oil base daily for 4 weeks) | PSA score (primary prostate cancer [3]; suppository 400 mg in theobroma oil base daily for 4 weeks, PSA at start 9.6, doubling time 6 weeks) | PSA at completion of 15 month therapy (primary prostate cancer [3]; [10]) | tumour doubling time (primary prostate cancer [3]; [10]) | potency as an anti-cancer agent compared to genistein [4] | tumour growth during treatment (primary prostate cancer [5]; 400 mg daily in olive oil base rectally) | PSA at completion of 2 week period (primary prostate cancer [5]; 400 mg daily in olive oil base rectally for 3 weeks, PSA at start 6.0) | sensitivity of colo-rectal cancer cell lines [6] | effect on tumour doubling time (primary prostate cancer [7]; oral administration) | PSA doubling time (primary prostate cancer [7]; oral, 400 mg daily increasing to 800 mg daily for 2 weeks) | PSA at completion of 2 week period (primary prostate cancer [7]; oral, 400 mg daily increasing to 800 mg daily for 2 weeks, chemical castration therapy, PSA at start 3.4) | clinical benefit [8]
Oc1ccc(C2COc3cc(O)ccc3C2c2ccc(O)cc2)cc1 (centres unmarked) [ME-143, 4,4′-(7-hydroxychroman-3,4-diyl)diphenol] | failed to show any clinical benefit |  |  |  |  |  |  |  |  |  |  |  |  |  |  |  | 
Oc1ccc(C2=Cc3ccc(O)cc3OC2)cc1 [idronoxil, 2H-1-Benzopyran-7-0,1,3-(4-hydroxyphenyl)] |  | not being particularly susceptible to Phase 1 metabolic processes | completely conjugated | 10 | inhibitory effect on tumour growth | effectively stopped tumour growth | 10 | 67 | 6 months | about 10 × | continual growth of tumour during the treatment period | 9.6 | insensitivity | failed to reduce tumour doubling time | 1 month | 6.7 | lack of any clinical benefit

— US20210338576A1, “CANCER TREATMENT” (NOXOPHARM LIMITED, priority 2016, published 2021)
